We go through 23 molecules from PubChem BioAssay AID248 (DTP/NCI, 2004).

Values joined by “and” are separate entries in the source; they are usually repeats but may differ in a detail not shown here. Identical values can stand only once. Inconclusive results and toxic doses are left out. Bridge positions count the residues as written; N and C are the ends. Square brackets hold non-standard residues; d marks the D form. Peptide text beside a SMILES is read from it. I, II: the chains in the order shown. * marks the point of attachment. Quinoxaline2carbonyl = O=C(c1cnc2ccccc2n1)*; NMeV = CN[CH](C(=O)O)C(C)C; NMeC = CN[CH](CS)C(=O)O; Boc = CC(C)(C)OC(=O)*; OtBu = CC(C)(C)O*; NHNH2 = NN*

In the assay the test system is L1210 leukemia ip in BDF1 mice, survival T/C. Kind of assay: NCI In Vivo Anticancer Drug Screen. Data for tumor model L1210 Leukemia (intraperitoneal) in B6D2F1 (BDF1) mice. The note with it: endpoint: mean survival time, higher = longer survival. The essentials: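 In this screen, tumor-bearing mice given compound are compared to those given vehicle, and their survival values are reported as a treated-to-control quotient.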

Setting [1] is: dose: 100.0 mg/kg/injection, schedule: Q04DX002 (ip), vehicle: Klucel (hydroxypropylcellulose) (HPC).
The mark [2] stands for this setting: dose: 200.0 mg/kg/injection, schedule: Q04DX002 (ip), vehicle: Klucel (hydroxypropylcellulose) (HPC).
Where [3] appears, read: dose: 400.0 mg/kg/injection, schedule: Q04DX002 (ip), vehicle: Klucel (hydroxypropylcellulose) (HPC).
The mark [4] stands for this setting: dose: 50.0 mg/kg/injection, schedule: Q01DX009 (ip), vehicle: saline with Tween-80.
The mark [5] stands for this setting: dose: 100.0 mg/kg/injection, schedule: Q01DX009 (ip), vehicle: saline with Tween-80.
Where [6] appears, read: dose: 100.0 mg/kg/injection, schedule: Q04DX003 (ip), vehicle: saline with Tween-80.
The mark [7] stands for this setting: dose: 200.0 mg/kg/injection, schedule: Q01DX009 (ip), vehicle: saline with Tween-80.
The mark [8] stands for this setting: dose: 200.0 mg/kg/injection, schedule: Q04DX003 (ip), vehicle: saline with Tween-80.
[9] abbreviates: dose: 25.0 mg/kg/injection, schedule: Q01DX009 (ip), vehicle: Klucel (hydroxypropylcellulose) (HPC).
The mark [10] stands for this setting: dose: 50.0 mg/kg/injection, schedule: Q01DX009 (ip), vehicle: Klucel (hydroxypropylcellulose) (HPC).
[11] abbreviates: dose: 100.0 mg/kg/injection, schedule: Q01DX009 (ip), vehicle: Klucel (hydroxypropylcellulose) (HPC).
Where [12] appears, read: dose: 100.0 mg/kg/injection, schedule: Q04DX003 (ip), vehicle: Klucel (hydroxypropylcellulose) (HPC).
Setting [13] is: dose: 200.0 mg/kg/injection, schedule: Q04DX003 (ip), vehicle: Klucel (hydroxypropylcellulose) (HPC).
Setting [14] is: dose: 400.0 mg/kg/injection, schedule: Q04DX003 (ip), vehicle: Klucel (hydroxypropylcellulose) (HPC).
[15] abbreviates: dose: 100.0 mg/kg/injection, schedule: Q04DX002 (ip), vehicle: saline with Tween-80.
Where [16] appears, read: dose: 200.0 mg/kg/injection, schedule: Q04DX002 (ip), vehicle: saline with Tween-80.
Setting [17] is: dose: 200.0 mg/kg/injection, schedule: Q01DX009 (ip), vehicle: Klucel (hydroxypropylcellulose) (HPC).
Where [18] appears, read: dose: 400.0 mg/kg/injection, schedule: Q01DX009 (ip), vehicle: Klucel (hydroxypropylcellulose) (HPC).

Regarding `C/C=C/C[P+](Cc1cccc(C)c1)(c1ccccc1)c1ccccc1`, the T/C was 107 % of control (dose: 3.13 mg/kg/injection, schedule: Q01DX009 (ip), vehicle: saline with Tween-80); 113 % of control (dose: 6.25 mg/kg/injection, schedule: Q01DX009 (ip), vehicle: saline with Tween-80); 98 % of control (dose: 12.5 mg/kg/injection, schedule: Q01DX009 (ip), vehicle: saline with Tween-80).
Regarding `O=[N+]([O-])c1ccc2cnn(CCCl)c2c1`, the T/C by setting is: (dose: 100.0 mg/kg/injection, schedule: Q01DX001 (ip), vehicle: carboxymethylcellulose (CMC)) 94 % of control; (dose: 200.0 mg/kg/injection, schedule: Q01DX001 (ip), vehicle: carboxymethylcellulose (CMC)) 100 % of control; (dose: 400.0 mg/kg/injection, schedule: Q01DX001 (ip), vehicle: carboxymethylcellulose (CMC)) 108 % of control.
With `Oc1ccc(-c2nnc(-c3ccc(O)cc3)nn2)cc1`, the T/C was 91 % of control under setting [1], 94 % of control under setting [2] and 102 % of control under setting [3].
On to `CCC(C)C(NC(=O)CNC(=O)OC(C)(C)C)C(=O)NC(C(=O)NC(CCC(=O)OC(C)(C)C)C(=O)NN)C(C)C` (stereo not drawn) (Boc-GIVE(OtBu)-NHNH2; configuration not given here), for which the T/C (dose: 75.0 mg/kg/injection, schedule: Q01DX001 (ip), vehicle: saline sonified) is 100 % of control; the T/C (dose: 150.0 mg/kg/injection, schedule: Q01DX001 (ip), vehicle: saline sonified) is 92 % of control; the T/C (dose: 300.0 mg/kg/injection, schedule: Q01DX001 (ip), vehicle: saline sonified) was 106 % of control.
On to `Cc1ccc(N2P(N(C)C)N(c3ccc(C)cc3)P2(=O)N(C)C)cc1` (stereo not drawn), for which the T/C was 111 % of control under setting [1], 101 % of control under setting [2] and 101 % of control under setting [3].
As for `O=C(O)c1[nH]c(=O)[nH]c(=O)c1F.[Ga]`, the T/C is 109 % of control under setting [4]; 91 % of control under setting [5]; 101 % of control under setting [6]; 160 % of control (dose: 177.0 mg/kg/injection, schedule: Q01DX001 (ip), vehicle: saline with Tween-80); 174 % of control (dose: 200.0 mg/kg/injection, schedule: Q01DX001 (ip), vehicle: saline with Tween-80); 99 % of control under setting [7]. The T/C under setting [8] was 102 % of control and the T/C (dose: 400.0 mg/kg/injection, schedule: Q01DX001 (ip), vehicle: saline with Tween-80) is 197 % of control.
In the case of `CC1NC(=O)C(NC(=O)c2cnc3ccccc3n2)COC(=O)C(C(C)C)N(C)C(=O)C2CSSCC(C(=O)N(C)C(C(C)C)C(=O)OCC(NC(=O)c3cnc4ccccc4n3)C(=O)NC(C)C(=O)N2C)N(C)C1=O` (stereo not drawn) (I: Quinoxaline2carbonyl-SA[NMeC][NMeV] / II: Quinoxaline2carbonyl-SA[NMeC][NMeV]; ester I:1-II:C, I:C-II:1; disulfide I:3-II:3; configuration not given here), the T/C (dose: 12.5 micrograms/kg/injection, schedule: Q01DX009 (ip), vehicle: other) was 106 % of control; the T/C (dose: 25.0 micrograms/kg/injection, schedule: Q01DX009 (ip), vehicle: other) was 116 % of control; the T/C (dose: 50.0 micrograms/kg/injection, schedule: Q01DX009 (ip), vehicle: other) is 119 % of control; the T/C (dose: 100.0 micrograms/kg/injection, schedule: Q01DX009 (ip), vehicle: other) is 122 % of control.
Turning to `CCOCC(O)(c1ccc(Cl)cc1)c1ccc(Cl)cc1`, the T/C is, setting by setting: under setting [6], 106 % of control; under setting [8], 95 % of control; (dose: 400.0 mg/kg/injection, schedule: Q04DX003 (ip), vehicle: saline with Tween-80) 102 % of control.
As to `O=C(COc1ccccc1)CC(O)(C(F)(F)F)C(F)(F)F`, the T/C is 97 % of control under setting [6] and 92 % of control under setting [8].
Consider `NC(=O)OCC1OC(n2cnc3c(=O)[nH]c(N)nc32)C(O)C1O` (stereo not drawn), for which the T/C was 94 % of control under setting [9]; 98 % of control under setting [10]; 105 % of control (dose: 100.0 mg/kg/injection, schedule: Q01DX005 (ip), vehicle: saline); 94 % of control under setting [11]; 92 % of control (dose: 200.0 mg/kg/injection, schedule: Q01DX005 (ip), vehicle: saline).
For `COc1ccc2c(c1)CSC(c1ccccc1)=C2`, the T/C is 98 % of control (dose: 25.0 mg/kg/injection, schedule: Q04DX002 (ip), vehicle: Klucel (hydroxypropylcellulose) (HPC)); 120 % of control (dose: 50.0 mg/kg/injection, schedule: Q04DX002 (ip), vehicle: Klucel (hydroxypropylcellulose) (HPC)); 98 % of control under setting [1].
With `CN(CC#N)/N=N/c1nc[nH]c1C(N)=O`, the T/C is 118 % of control (dose: 50.0 mg/kg/injection, schedule: Q01DX Z (ip), vehicle: carboxymethylcellulose (CMC)) and 107 % of control (dose: 75.0 mg/kg/injection, schedule: Q01DX Z (ip), vehicle: carboxymethylcellulose (CMC)).
With `O=P1(Cc2ccccc2)C(c2ccccc2)=C(O)CC1c1ccccc1` (stereo not drawn), the T/C is 101 % of control under setting [12], 99 % of control under setting [13] and 89 % of control under setting [14].
As for `CCc1ccc(C(=O)c2ccccc2)c2c1C(=O)c1ccccc1C2=O`, the T/C is 91 % of control under setting [15]; 88 % of control under setting [16]; 102 % of control (dose: 400.0 mg/kg/injection, schedule: Q04DX002 (ip), vehicle: saline with Tween-80).
As to `CN(C)c1ccc(C=O)c(F)c1`, the T/C reads like this: under setting [11], 96 % of control; under setting [17], 100 % of control; under setting [18], 110 % of control.
For the molecule `CC(NCCOc1ccccc1)c1ccccc1` (stereo not drawn), the T/C under setting [15] is 108 % of control and the T/C under setting [16] is 105 % of control.
Consider `CC(C)(C#N)C(C)(C)C#N`, for which the T/C reads like this: (dose: 1.56 mg/kg/injection, schedule: Q04DX003 (ip), vehicle: saline with Tween-80) 103 % of control; (dose: 3.13 mg/kg/injection, schedule: Q04DX003 (ip), vehicle: saline with Tween-80) 92 % of control; (dose: 6.25 mg/kg/injection, schedule: Q04DX003 (ip), vehicle: saline with Tween-80) 93 % of control and 92 % of control.
For the molecule `CN1CC(=O)NC1=O`, the T/C runs as follows: (dose: 250.0 mg/kg/injection, schedule: Q01DX Z (ip), vehicle: saline) 94 % of control; (dose: 500.0 mg/kg/injection, schedule: Q01DX Z (ip), vehicle: saline) 97 % of control; (dose: 1000.0 mg/kg/injection, schedule: Q01DX Z (ip), vehicle: saline) 96 % of control.
Take `Nc1nc(N)nc(SCCOCCSc2nc(N)nc(N)n2)n1`: the T/C is, setting by setting: under setting [5], 103 % of control; under setting [7], 94 % of control; (dose: 400.0 mg/kg/injection, schedule: Q01DX009 (ip), vehicle: saline with Tween-80) 92 % of control.
For the molecule `O=S(=O)(OC1CCCCC1Br)c1ccc(Br)cc1` (stereo not drawn), the T/C runs as follows: under setting [4], 98 % of control; under setting [5], 95 % of control.
Consider `CC(C)C1C(C)N1C(C)C` (stereo not drawn), for which the T/C is 107 % of control under setting [9], 100 % of control under setting [10], 104 % of control under setting [11] and 95 % of control under setting [12].
Turning to `COC(=O)c1cc(=O)[nH]c2c1c(=O)n(C)c(=O)n2C`, the T/C reads like this: under setting [12], 95 % of control; under setting [17], 97 % of control; under setting [13], 90 % of control; under setting [18], 97 % of control; under setting [14], 94 % of control.
As to `Cc1ccc(S(=O)(=O)N=N/C=C2/C=CC=CN2O)cc1`, the T/C was 93 % of control (dose: 40.0 mg/kg/injection, schedule: Q01DX009 (ip), vehicle: saline); 96 % of control (dose: 60.0 mg/kg/injection, schedule: Q01DX009 (ip), vehicle: saline); 94 % of control (dose: 90.0 mg/kg/injection, schedule: Q01DX009 (ip), vehicle: saline); 104 % of control (dose: 135.0 mg/kg/injection, schedule: Q01DX009 (ip), vehicle: saline); 111 % of control (dose: 175.0 mg/kg/injection, schedule: Q01DX009 (ip), vehicle: saline with Tween-80).
